According to patent US20210369677A1, “SMALL MOLECULE ACTIVATORS OF POLYCYSTIN-2 (PKD2) AND USES THEREOF” (Northwestern University, priority 2020, published 2021):

Tested on: polycystin-2L1
Type: cell-based
Conditions: for Effect of extracellular reducing agents on polycystin-2L1 current: WT polycystin-2L1
Procedure: Electrophysiology. Ciliary ion currents were recorded using borosilicate glass electrodes polished to resistances of 14-22 MΩ using the cilium patch method previously described^32. Whole cell electrodes used to measure poly cystin-2L1 currents were fire polished to 1.5-4 MΩ resistances. Unless otherwise stated, whole cilia ionic currents were recorded in symmetrical [Na^+]. The pipette standard internal solution contained (in mM): 90 NaMES, 10 NaCl, 10 HEPES, 10 Na4-BAPTA (Glycine, N, N′-[1,2-ethanediylbis(oxy-2,1-phenylene)]bis[N-(carboxymethyl)]-,tetrasodium); pH was adjusted to 7.3 using NaOH. Standard bath solution contained 140 NaCl, 10 HEPES, 1.8 CaCl2); pH 7.4. All solutions were osmotically balanced to 295 (±6) mOsm with mannitol. Extracellular solutions containing TCEP and GSH were used within six hours of formulation. Data were collected using an Axopatch 200B patch clamp amplifier, Digidata 1440A, and pClamp 10 software. Whole-cilium and excised patch currents were digitized at 25 kHz and low-pass filtered at 10 kHz. In the whole cilium configuration, the holding potential was −60 mV and then depolarized using a 400 ms voltage ramp from −100 mV to 100 mV. The whole cell recordings of polycystin-2L1 currents were either activated by the same ramp protocol or by 100 ms depolarizations to 100 mV from a −100 mV holding potential. External conditions were controlled using a Warner Perfusion Fast-Step (SF-77B) system in which the patched cilia and electrode were held in the perfusate stream. Data were analyzed by Igor Pro 7.00 (Wavemetrics, Lake Oswego, Oreg.). The polycystin-2 open probability and the polycystin-2L1 tail current-voltage relationships were fit to a Boltzmann function, f(x)=1/(1+exp[V−V1/2]/k) to estimate voltage of half-maximal activation of current (V1/2).

SMILES: N[C@@H](CCC(=O)N[C@@H](CS)C(=O)NCC(=O)O)C(=O)O [GSH, reduced glutathione]
- Effect of extracellular reducing agents on polycystin-2L1 current: near complete loss of current

SMILES: O=C(O)CCP(CCC(=O)O)CCC(=O)O [TCEP, tris-2-carboxyethyl phosphine]
- Effect of extracellular reducing agents on polycystin-2L1 current: near complete loss of current

SMILES: [Gd] [gadolinium]
- Block of polycystin-2L1 currents by trivalent ions (10 μM, plasma membrane of HEK cells): blocked
